Results: patent publication EP0486958A1, “Physostigmine derivatives” (MEDIOLANUM FARMACEUTICI s.r.l., priority 1990, dated 1992)
“And” between values parts separate entries of the source, which are not always exact repeats. Equal entries are not always repeated. Where two headings read alike, the source gives them in different places.

Key:
Suiss female rats = assay: Acute toxicity (LD₅₀); assay type: in vivo; conditions: for acute toxicity lower than the one of physostigmine: relative to physostigmine
Protocol: (§1) The LD₅₀ acute toxicity of the compounds obtained in Examples 2,3,4 and 6 has evaluated on Suiss female rats.
(§2) The compounds were administered per os and endovenously to different groups of animals in the form of tatrates dissolved in water. (The endovenous administration provides the highest bio-availability of the products). The results are shown in Table 3, together with the comparison ones obtained employing physostigmine.

[1] = target: T1, Electric Eel acetylcholinesterase, type V.S. (Electrophorus electricus, UniProt O42275); assay: Acetylcholinesterase inhibiting activity, test in vitro (Ellman method); assay type: biochemical; conditions: 20 min incubation, 25°C, phosphate buffer pH 8
T1 construct: purchased Sigma Chemicals type V.S
Protocol: The acetylcholinesterase activity was determined by the method of Ellman et al. (Ellman, G.L. Courtney, K.D. Andres, V., Featherstone, R.M. A new and rapide colorimetric determination of acetylcholinesterase activity - Biochem. Pharm., 1961, 7, 88).
The Electric Eel acetylcholinesterase, type V.S. of Sigma Chemicals was employed.
To determine IC₅₀, the incubation medium consisted of: Ellman reagent (5,5'-Dithiobis-2-nitrobenzoic acid) 100 µl; enzymatic solution (5,5 units/ml) 35 µl; variable concentration inhibitor 50 µl; phosphate buffer (0.1 mol/l; pH 8) 3000 µl. After 20 min. incubation, 20 µl acetylcholine (0.075 mol/l) are added, and the spectrophotomer, with kinetic software and thermostated at 25°C, was read for 3-5 min. At this point the reaction is in the stationary state. The concentrations of the products apt to inhibit by 50% (IC₅₀) the enzyme activity were calculated.

Acute toxicity (LD₅₀) = assay type: in vivo, Suiss female rats; conditions: rat, tartrates dissolved in water
Protocol: as §1, §2

[2] = target: T2, brain acetylcholinesterase (Rattus norvegicus, UniProt P37136); assay: Brain acetylcholinesterase activity after oral administration to rats (enzymatic dosage, Ellman method on isolated brains); assay type: in vivo, male CD/SD rats; conditions: 50 mg/kg by gastric probe as tartrates in water, vs control group, individual animals; for % Variation of acetylcholinesterase at time 10′: 10′ after treatment; for % Variation of acetylcholinesterase at time 60′: 60′ after treatment; for % Variation of acetylcholinesterase at time 120′: 120′ after treatment
T2 construct: from tissue; host or cells: brain of male CD/SD rats
T2 sequence (P37136 32-614): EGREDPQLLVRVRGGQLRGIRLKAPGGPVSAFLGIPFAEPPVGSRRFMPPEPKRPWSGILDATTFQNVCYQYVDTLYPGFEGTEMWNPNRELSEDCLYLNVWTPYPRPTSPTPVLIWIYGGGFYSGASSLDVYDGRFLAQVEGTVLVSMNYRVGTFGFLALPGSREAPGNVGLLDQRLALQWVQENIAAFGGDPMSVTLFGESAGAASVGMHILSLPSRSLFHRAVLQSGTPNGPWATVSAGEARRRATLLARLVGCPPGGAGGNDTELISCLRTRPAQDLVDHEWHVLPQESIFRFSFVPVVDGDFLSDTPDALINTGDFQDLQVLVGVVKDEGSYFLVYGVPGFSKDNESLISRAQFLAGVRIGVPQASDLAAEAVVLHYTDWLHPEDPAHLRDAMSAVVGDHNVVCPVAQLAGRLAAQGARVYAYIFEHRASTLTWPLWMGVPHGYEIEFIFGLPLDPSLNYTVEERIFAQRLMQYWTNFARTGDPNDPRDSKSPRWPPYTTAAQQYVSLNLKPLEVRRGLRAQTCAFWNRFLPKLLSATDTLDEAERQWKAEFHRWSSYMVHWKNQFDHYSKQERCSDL
Protocol: The effects of the compounds of Examples 2 and 3 on the brain acetylcholinesterase activity of male CD/SD rats evaluation were administered by gastric probe at the dose of 50 mg/kg in the form of tartrates dissolved in water. The rats were previously kept from eating for 18 hrs. One group of rats treated by or with physiological solution served as control. The rats were sacrificed by decapitation at various times after the treatment with the products under examination. On the isolated brains the acetylcholinesterase activity was determined by the Ellman et al. method employed in the "vitro" tests.
The percentage variation of the acetylcholinesterase activity in the brain of the rats treated by or with the brains of rats treated with physiological solution (control group) was calculated.

acetylcholinesterase = acetylcholinesterase (Homo sapiens, UniProt P22303); conditions: literature data; cited from earlier work
[3] = water, iv, endovenous, read-out: LD₅₀ endovenous
[4] = water, po, oral (per os), read-out: LD₅₀ oral

T1 sequence (O42275 24-633): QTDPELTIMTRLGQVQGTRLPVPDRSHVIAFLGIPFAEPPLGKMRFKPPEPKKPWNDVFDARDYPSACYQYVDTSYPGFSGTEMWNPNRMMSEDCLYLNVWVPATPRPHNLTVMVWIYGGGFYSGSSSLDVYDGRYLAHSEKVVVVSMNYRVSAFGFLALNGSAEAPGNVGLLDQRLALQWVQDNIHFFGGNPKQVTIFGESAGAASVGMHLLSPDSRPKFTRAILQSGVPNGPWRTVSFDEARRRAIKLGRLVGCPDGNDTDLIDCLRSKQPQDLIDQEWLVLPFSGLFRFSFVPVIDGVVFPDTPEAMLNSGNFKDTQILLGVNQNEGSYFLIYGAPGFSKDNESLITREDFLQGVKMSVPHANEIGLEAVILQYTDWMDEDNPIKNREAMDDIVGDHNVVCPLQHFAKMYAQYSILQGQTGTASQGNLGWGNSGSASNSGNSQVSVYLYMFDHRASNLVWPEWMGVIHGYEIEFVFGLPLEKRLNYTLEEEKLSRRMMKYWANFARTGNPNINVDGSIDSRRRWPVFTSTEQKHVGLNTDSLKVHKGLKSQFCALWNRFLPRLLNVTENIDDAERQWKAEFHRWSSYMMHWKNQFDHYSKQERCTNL
acetylcholinesterase, sequence (P22303 32-614): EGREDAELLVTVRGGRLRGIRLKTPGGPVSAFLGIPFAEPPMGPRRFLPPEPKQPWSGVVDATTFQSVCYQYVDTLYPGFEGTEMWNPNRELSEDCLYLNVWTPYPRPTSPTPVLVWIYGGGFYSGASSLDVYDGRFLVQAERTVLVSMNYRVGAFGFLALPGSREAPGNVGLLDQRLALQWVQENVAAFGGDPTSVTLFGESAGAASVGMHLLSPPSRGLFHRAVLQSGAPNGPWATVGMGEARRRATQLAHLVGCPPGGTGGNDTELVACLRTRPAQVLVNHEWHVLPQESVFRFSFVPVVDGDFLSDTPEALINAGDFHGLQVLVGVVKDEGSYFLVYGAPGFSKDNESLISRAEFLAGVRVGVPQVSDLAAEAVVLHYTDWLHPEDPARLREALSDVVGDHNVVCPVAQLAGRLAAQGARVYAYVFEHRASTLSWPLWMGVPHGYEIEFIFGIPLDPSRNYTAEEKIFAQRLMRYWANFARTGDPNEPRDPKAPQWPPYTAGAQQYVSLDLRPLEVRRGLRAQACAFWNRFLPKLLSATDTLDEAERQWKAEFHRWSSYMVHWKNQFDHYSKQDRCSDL

| SMILES | LD₅₀ endovenous (Suiss female rats; tartrates dissolved in water) | IC50 [1] [µM] | LD50 (Acute toxicity (LD₅₀); [3]) [mg/kg] | LD50 (Acute toxicity (LD₅₀); [4]) [mg/kg] | acute toxicity lower than the one of physostigmine (Suiss female rats) | % Variation of acetylcholinesterase at time 10′ [2] | % Variation of acetylcholinesterase at time 60′ [2] | % Variation of acetylcholinesterase at time 120′ [2] | also measured |
| --- | --- | --- | --- | --- | --- | --- | --- | --- | --- |
| CCCN(C)C(=O)Oc1ccc2c(c1)[C@]1(C)CCN(C)[C@@H]1N2C (relative stereo) [Example 2, 1,2,3,3a,8,8a-hexaydro-1,3a,8-trimethylpyrrol(2,3-b)indol-5-ol(3aS-cis)-N-methyl,N-propylcarbamate (ester)] | >50 mg/kg and <100 mg/kg | 1.1 |  |  |  |  |  |  | LD₅₀ oral (Suiss female rats; oral (per os), tartrates dissolved in water): >100 mg/kg and <150 mg/kg |
| CCCCCN(C)C(=O)Oc1ccc2c(c1)[C@]1(C)CCN(C)[C@@H]1N2C [Example 3, 1,2,3,3a,8,8a-hexahydro-1,3a,8-trimethylpyrrol(2,3-b)indol-5-ol(3aS-cis)-N-methyl,N-pentylcarbamate (ester)] | <100 mg/kg | 1.9 | > 50 | > 178 | approximately 100 times | -60,1% and -53,8% | -69,6% and -70,9% | -72,0% and -68,0% |  |
| CCCCCCCN(C)C(=O)Oc1ccc2c(c1)[C@]1(C)CCN(C)[C@@H]1N2C [Example 4, 1,2,3,3a,8,8a-hexahydro-1,3a,8-trimethylpyrrol(2,3-b)indol-5-ol (3aS-cis) N-methyl,N-heptylcarbamate (ester)] | <100 mg/kg | 3.5 | > 50 | > 200 | approximately 100 times | 0% and 5,7% | -52,7% and -47,1% | -54,5% and -56,5% |  |
| CN(Cc1ccccc1)C(=O)Oc1ccc2c(c1)[C@]1(C)CCN(C)[C@@H]1N2C [Example 6, 1,2,3,3a,8,8a-hexahydro-1,3a,8-trimethylpyrrol.(2,3-b)indol-5-ol (3aS-cis) N-methyl,N-benzyl carbamate (ester)] |  | 1 | < 50 | ~70 |  |  |  |  |  |
| CNC(=O)Oc1ccc2c(c1)[C@]1(C)CCN(C)[C@@H]1N2C [Physostigmine] |  |  |  |  |  |  |  |  | LD50 (Acute toxicity (LD₅₀); female, Suiss, in vivo, intravenous, endovenous, read-out: LD₅₀ endovenous): 0.58 mg/kg; LD50 (Acute toxicity (LD₅₀); female, Suiss, in vivo, po, oral (per os), read-out: LD₅₀ oral): 2.2 mg/kg |
| CCN(CC)C(=O)Oc1ccc2c(c1)C1(C)CCN(C)C1N2C (stereo not shown) [diethylphysostigmine] |  |  |  |  |  |  |  |  | acetylcholinesterase inhibiting activity (acetylcholinesterase): low inhibiting activity |
